In patent US4731471A, “(5,6-dichloro-3-oxo-2,3,9,9a-tetrahydrofluoren-7-yl)-alkanoic acids and alkanimidamides bearing novel functional 9a-substituents” (Merck & Co., Inc., priority 1986, dated 1988):

Key:
[1] = tested on: cerebrocartical tissue slices from cats; assay: in vitro cat cerebrocortical tissue slice assay (HCO3^- -stimulated swelling); details: Felis catus, racemate
From the text: This assay is described in detail in articles by: Cragoe, E. J., Jr.; Gould, N. P.; Woltersdorf, O. W., Jr.; Ziegler, C.: Bourke, R. S.; Nelson, L. R.; Kimelberg, H. K.; Waldman, J. B.; Popp, A. J.; Sedransk, N. J. Med. Chem. 1982, 25, 567, and by Rourke, R. S.: Kimelberg, H. K.; Daze, M.; Church, G. Neurochem. Res. 1983, 8, 5.
Cat pial surface slices (~0.5 mm thick) were cut from the cerebral convexities using a Stadie-Riggs microtome without any moistening. Each slice was then weighed on a torsion balance and immediately placed in a Warburg flask containing 2 mL incubation medium at room temperature (22° C.).
The basic composition of the incubation medium in mmol/l was: KCl, 27; NaCl, 100; glucose, 10; KH2 PO4, 1.2: MgSO4, 1.2; CaCl2, 1.3; HEPES (N-2-hydroxyethylpiperazine-N'-2-ethanesulfonic acid (Sigma)). This solution was titrated with NaOH to pH 7.8, and saturated with oxygen by bubbling the gas through the solution.
To obtain HCO3^- dependent swelling, a solution of NaHCO3 in the above medium was added from the side-arm of the flask to slices which had been incubated in 2 mL of medium without added HCO3 at 37° C. for 20 minutes to achieve a final concentration of 5 mmol. The slices were then incubated for an additional 40 minutes. For control experiments,0.5 mL of the medium without HCO3^- was similarly added from the side-arm. Inhibitors, when used, were present with the slices throughout the 60 minute incubation period. After 60 minutes, the tissue slices were separated from the medium by careful vacuum filtration, re-weighed, and then homogenized (10% w/v suspension) in 1N perchloric acid and then centrifuged. The supernatant was then assayed for electrolytes as previously described.
The tissue content of electrolytes is always expressed as micromoles per gram of the initial wet weight. Percent swelling was calculated as (final wet weight minus initial wet weight/initial wet weight)×100 and HCO3^- dependent swelling would be the increased swelling of slices due to added HCO3^- in media containing 28-29 mmol K^+. Such HCO3^- stimulated swelling is not seen in medium with a normal K^+ concentration (4 to 5 mmol).
The (1) in vitro cat cerebrocortical tissue slice assay, (2) the in vitro primary rat astrocyte culture assay and (3) the in vivo cat head injury assay. The first assay, the in vitro cat cerebrocortical tissue slice assay has been described by Marshall, L. F.; Shapiro, H. M.; Smith, R. W. In "Seminars in Neurological Surgery: Neural Trauma"; Popp, A. J.; Bourke, R. S.; Nelson, L. R.; Kimelberg, H, K,. Eds.; Raven Press: New York, 1979; p. 347, by Bourke, R. S.; Kimelberg, H, K.; Daze, M. A. in Brain Res. 1978, 154, 196, and by Bourke, R. S.; Kimelberg, H. K,; Nelson, L. R. in Brain Res. 1976, 105, 309. This method constitutes a rapid and accurate method of determining the intrinsic chloride inhibitory properties of the compounds of the invention in the target tissue.
Using in vitro cat cerebrocortical tissue slice assay, described in Example 1, compounds of the present invention can be tested for activity. This test provides the principal in vitro evaluation and consists of a determination of concentration vs. response curve. The addition of HCO3^- to isotonic, K^+ -rich saline-glucose incubation media is known to specifically stimulate the transport of Cl^- coupled with Na^+ and an osmotic equivalent of water in incubating slices of mammalian cerebral cortex. […] After addition of drug to the incubation media, detailed drug concentration-response curves are then obtained. The data are expressed as percent HCO3^- -stimulated swelling vs. drug concentration, from which the concentration of drug providing 50% inhibition of HCO3^- -stimulated swelling (I50 in molarity) is interpolated.
Adult cats of 2-3 kg body weight are employed in tissue slice studies. Prior to sacrifice, the animals are anesthetized with ketamine hydrochloride (Ketaset), 10 mg/kg intramuscularly. […]

[2] = tested on: clinical cases of head injury; details: cited from earlier work
[3] = tested on: astroglial edema; details: cited from earlier work
[4] = tested on: experimental head injury; details: cited from earlier work

For `O=C(O)COc1cc2c(c(Cl)c1Cl)C1=CC(=O)CCC1(CCO)C2` (racemic) [Example 2, {[5,6-Dichloro-9a-(2-hydroxyethyl)-3-oxo-2,3,9,9a-tetrahydro-1H-fluoren-7-yl]oxy}acetic acid], which inhibition at 0.1 µM ([1]; Conc. 10^-7 M) is on record?
Its inhibition at 0.1 µM is 19%.

And the inhibition at 0.01 µM ([1]; Conc. 10^-8 M)?
The inhibition at 0.01 µM was 92%.

What about the inhibition at 0.001 µM ([1]; Conc. 10^-9 M) of the same molecule?
The inhibition at 0.001 µM was 75%.

What about the inhibition at 0.0001 µM ([1]; Conc. 10^-10 M) of the same molecule?
The inhibition at 0.0001 µM was 85%.

What about the inhibition at 10 pM ([1]; Conc. 10^-11 M) of the same molecule?
Its inhibition at 10 pM is 53%.

What about the inhibition at 1 pM ([1]; Conc. 10^-12 M) of the same molecule?
Its inhibition at 1 pM is 15%.

With `C=C(CC)C(=O)c1ccc(OCC(=O)O)c(Cl)c1Cl` [ethacrynic acid] as the molecule, how does the “reducing mortality in clinical cases of head injury” value [2] read?
The value was “effective in reducing mortality in clinical cases of head injury”.

What about the “activity in in vitro assay” value [3] of the same molecule?
Its value is “exhibited activity”.

And the “activity in in vivo assay” value [4]?
The value was “exhibited activity”.
